# Measurements taken from patent publication US8637461B2, “Method of diagnosing and treating oxidative stress-impaired wound healing” (Kuwait University, priority 2011, dated 2014).
# Key:
# IRS-1 = IRS-1 Tyr612 phosphorylation, immunoprecipitation/western blotting in dermal fibroblasts; format: cell-based, rat
# Method: (§1) Primary dermal fibroblasts were obtained from dorsal skin of female Goto Kakizaki (GK, age 12-15 months) rats, a model for non-obese type 2 diabetes, and their Wistar control counterparts. After sterilization in povidine solution, rat skin was washed in sterile water and rinsed in 70% ethanol in PBS. Epidermis and dermis were separated following overnight incubation in 0.25% trypsine/EDTA at 4 C. Dermis was cut into small pieces and incubated in Dulbecco's modified Eagle medium (DMEM; Invitrogen) containing collagenase (250 U/ml; Sigma) for thirty min at 37 C in 5% CO2 with constant agitation. The sections were triturated vigorously to release fibroblasts, which were collected by centrifugation. The cell pellet was washed two times with PBS, re-suspended in complete medium (DMEM supplemented with 10% fetal calf serum, penicillin (100 U/ml), streptomycin (100 μg/ml)), 2 mM L-glutamine and 10 mM HEPES) and then cultured under a standard condition.
# A hypercortisolemic state was mimicked by exposing control fibroblasts to dexamethasone (Dexa, Sigma) administered at 20 ng/ml every other day for a duration of 8 days. Similarly, the state of low-grade inflammation in fibroblasts was recapitulated experimentally by exposing these cells to TNF-α (4 ng/ml every day for 4 days). […] The concentration of IGF-1 (50 ng/ml, Peprotech) was determined by prior dose response experiment.
# Levels/activities of key intracellular molecules in the IGF-1 signaling cascade including IRS-1, IRS-1 Tyr-p-612, PI3K-p85α, IRS-1 Ser-p (307), PI3K, Akt, p-Akt, INK and p-JNK were assessed using western blotting/immunoprecipitation and commercially available ELISA-based assays.
# Ice-cold radioimmunoprecipitation assay (RIPA) buffer was used for the extraction of proteins from fibroblasts. Immunoprecipitation was achieved by incubating cell homogenates with anti-IRS-1 antibody overnight at 4° C. followed by the addition of protein A/G-Agarose for additional two hours. Immunoprecipitates were separated using spin-collection filters (Cytosignal), washed once with RIPA buffer/3× with PBS and then elutated by the addition of Laemmli buffer. […] Antigen-antibody complexes were visualized by an enhanced chemiluminescence system on BioMax Light Film (Kodack) and then the densitometry was analyzed using Quantity One 1-D image software (BioRad, GS 800). All densitometry data were corrected for equal loading using the house keeping gene β-actin and they were expressed as fold change vs. control.
# Akt = Akt phosphorylation, western blotting in dermal fibroblasts; format: cell-based, rat; settings: diabetic, TNF-α- or dexamethasone-exposed cells; EUK-134; western blot
# Method: as §1, with “The cell pellet was washed two times with PBS, re-suspended in complete medium (DMEM supplemented with 10% fetal calf serum, penicillin (100 U/ml), streptomycin (100 μg/ml)), 2 mM L-glutamine and 10 mM HEPES) and then cultured under a standard condition.” left out
# (§2) A hypercortisolemic state was mimicked by exposing control fibroblasts to dexamethasone (Dexa, Sigma) administered at 20 ng/ml every other day for a duration of 8 days. […] The concentration of IGF-1 (50 ng/ml, Peprotech) was determined by prior dose response experiment.
# Levels/activities of key intracellular molecules in the IGF-1 signaling cascade including IRS-1, IRS-1 Tyr-p-612, PI3K-p85α, IRS-1 Ser-p (307), PI3K, Akt, p-Akt, INK and p-JNK were assessed using western blotting/immunoprecipitation and commercially available ELISA-based assays. […]
# dermal fibroblasts = assay: Radiolabelled proline uptake assay (collagen synthesis) in fibroblasts; format: cell-based, rat; settings: diabetic, TNF-α- or dexamethasone-exposed cells; EUK-134
# Method: as §1, with “The cell pellet was washed two times with PBS, re-suspended in complete medium (DMEM supplemented with 10% fetal calf serum, penicillin (100 U/ml), streptomycin (100 μg/ml)), 2 mM L-glutamine and 10 mM HEPES) and then cultured under a standard condition.” left out
# as §2
# The proliferation and collagen synthesis of cultured fibroblasts were determined using, respectively the 5-bromo-2-deoxyuridine (BrdU) incorporation into DNA and a radiolabelled proline uptake assay.
# A radiolabel proline uptake assay was used in the quantification of the rate of collagen synthesis in cultured fibroblasts derived from various experimental groups. […]
# [1] = Body weight and fasting plasma parameters in diabetic and hypercortisolemic rats; format: in vivo, rat
# Method: All animal procedures were performed in accordance with the NIH Guidance for the Care and Use of Laboratory Animals. The current study used, respectively the GK and Dexamethasone-treated rats as models for diabetes and hypercortisolemia. Dexamethasone was administered subcutaneously at a dose of 2.5 μg/kg body weight in the morning (8:00 AM) and in the evening (8:00 PM) for a duration of four weeks before wounding and this form of therapy continued during the course of healing. […] Weight and age-matched female Wistar rats (Kuwait University breeding colony) served as the corresponding controls. All of the animals were maintained under standard conditions with 12 hours on/off light cycle, commercial diet, and water ad libitum. GK rats destined for wounding were initially matched with regard to body weight (e.g., 230 to 250 g), and plasma levels of glucose, free fatty acids and insulin. These indices are commonly used to reflect the severity of the diabetic state.
# Animals used for IGF-1 sensitivity (n=6/group) and wound healing (n=8) studies were partitioned into five study groups including control, diabetic, hypercortisolemic, diabetic+EUK and hypercortisolemic+EUK. The EUK-134 was administered for duration of four weeks before wound induction and it continued during the course of healing.
# [2] = dexamethasone-treated (hypercortisolemic) rats + EUK-134 12.5 mg/kg ip every other day
# [3] = diabetic (GK) rats + EUK-134 12.5 mg/kg ip every other day
smiles,measurement,setting,value
COc1cccc(C=NCCN=Cc2cccc(OC)c2[O-])c1[O-].[Cl-].[Mn+3] [EUK-134],inhibition of IGF-1-induced IRS-1 Tyr612 phosphorylation,"IRS-1; diabetic fibroblasts or normal fibroblasts exposed to TNF-α or dexamethasone, EUK-134",ameliorates the inhibition of IRS-1 phosphorylation
same,common defect in IGF-1 signaling,"IRS-1; fibroblasts with diabetic, inflammatory or hypercortisolemia phenotypes, ROS suppressors",correct the common defect in IGF-1 signaling
same,Akt phosphorylation in response to IGF-1,Akt,partially restored
same,proline uptake (collagen synthesis),dermal fibroblasts,returns it to approximately control levels
same,FBG (fasting blood glucose),[1]; [2],81 ± 12 mg/dL
same,FFA (free fatty acid),[1]; [2],327 ± 16 µM
same,FPI (fasting plasma insulin),[1]; [2],0.58 ± 0.052 ng/mL
same,FBG (fasting blood glucose),[1]; [3],122 ± 18 mg/dL
same,FFA (free fatty acid),[1]; [3],353 ± 18 µM
same,FPI (fasting plasma insulin),[1]; [3],0.66 ± 0.05 ng/mL
same,abnormalities regarding lipid and carbohydrate profiles,"[1]; diabetic and hypercortisolemic rats, chronic treatment with ROS suppressors",ameliorated
